Source: US20150005288A1, “SUBSTITUTED PHENYLIMIDAZOPYRAZOLES AND USE THEREOF” (Bayer Intellectual Property GmbH, priority 2012, published 2015)

Legend:
[1] = target: T1, intracellular domain of human Tie2 (GST fusion protein) (Homo sapiens, UniProt Q02763); assay: Tie2 kinase assay (Tie2-TR-FRET); type: biochemical; settings: ATP concentration 1 mM, in some cases means of several independent determinations
T1 construct: intracellular domain of human Tie2 (amino acids 776-1124); made in house; host or cells: Baculovirus-infected insect cells (Hi5)
T1 sequence (Q02763 776-1124): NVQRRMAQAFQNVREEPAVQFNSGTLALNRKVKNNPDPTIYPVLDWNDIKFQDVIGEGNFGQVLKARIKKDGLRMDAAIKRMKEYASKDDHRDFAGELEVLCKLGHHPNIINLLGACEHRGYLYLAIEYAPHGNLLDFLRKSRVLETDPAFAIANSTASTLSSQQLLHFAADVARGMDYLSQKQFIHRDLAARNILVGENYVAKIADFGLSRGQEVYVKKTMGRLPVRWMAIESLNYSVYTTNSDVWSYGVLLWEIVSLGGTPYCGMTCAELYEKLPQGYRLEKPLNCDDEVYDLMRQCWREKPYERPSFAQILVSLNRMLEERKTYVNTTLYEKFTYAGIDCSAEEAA
Method in brief: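 High ATP (1 mM final) with 1 μM biotin-peptide substrate; reaction 60 min at 22 °C after 15 min compound pre-binding to GST-Tie2 (aa 776-1124) in HEPES pH 7 with Mg/Mn. Phosphopeptide detected by TR-FRET emission ratio 665/620 nm. IC50 from 4-parameter fit over 20 μM to 0.073 nM, duplicates.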

endogenous Tie2 receptor = target: T2, endogenous Tie2 receptor (Homo sapiens, UniProt Q02763); assay: Tie2-pTyr-ELISA: autophosphorylation of endogenous Tie2 receptor in HUVEC; type: cell-based; settings: autophosphorylation elevated by sodium orthovanadate (4 mM), Tie2/phosphotyrosine sandwich ELISA, from 2-7 independent measurements
T2 construct: the endogenous Tie2 receptor; host or cells: HUVEC (human umbilical vein endothelial cells)
T2 sequence (Q02763 23-1124): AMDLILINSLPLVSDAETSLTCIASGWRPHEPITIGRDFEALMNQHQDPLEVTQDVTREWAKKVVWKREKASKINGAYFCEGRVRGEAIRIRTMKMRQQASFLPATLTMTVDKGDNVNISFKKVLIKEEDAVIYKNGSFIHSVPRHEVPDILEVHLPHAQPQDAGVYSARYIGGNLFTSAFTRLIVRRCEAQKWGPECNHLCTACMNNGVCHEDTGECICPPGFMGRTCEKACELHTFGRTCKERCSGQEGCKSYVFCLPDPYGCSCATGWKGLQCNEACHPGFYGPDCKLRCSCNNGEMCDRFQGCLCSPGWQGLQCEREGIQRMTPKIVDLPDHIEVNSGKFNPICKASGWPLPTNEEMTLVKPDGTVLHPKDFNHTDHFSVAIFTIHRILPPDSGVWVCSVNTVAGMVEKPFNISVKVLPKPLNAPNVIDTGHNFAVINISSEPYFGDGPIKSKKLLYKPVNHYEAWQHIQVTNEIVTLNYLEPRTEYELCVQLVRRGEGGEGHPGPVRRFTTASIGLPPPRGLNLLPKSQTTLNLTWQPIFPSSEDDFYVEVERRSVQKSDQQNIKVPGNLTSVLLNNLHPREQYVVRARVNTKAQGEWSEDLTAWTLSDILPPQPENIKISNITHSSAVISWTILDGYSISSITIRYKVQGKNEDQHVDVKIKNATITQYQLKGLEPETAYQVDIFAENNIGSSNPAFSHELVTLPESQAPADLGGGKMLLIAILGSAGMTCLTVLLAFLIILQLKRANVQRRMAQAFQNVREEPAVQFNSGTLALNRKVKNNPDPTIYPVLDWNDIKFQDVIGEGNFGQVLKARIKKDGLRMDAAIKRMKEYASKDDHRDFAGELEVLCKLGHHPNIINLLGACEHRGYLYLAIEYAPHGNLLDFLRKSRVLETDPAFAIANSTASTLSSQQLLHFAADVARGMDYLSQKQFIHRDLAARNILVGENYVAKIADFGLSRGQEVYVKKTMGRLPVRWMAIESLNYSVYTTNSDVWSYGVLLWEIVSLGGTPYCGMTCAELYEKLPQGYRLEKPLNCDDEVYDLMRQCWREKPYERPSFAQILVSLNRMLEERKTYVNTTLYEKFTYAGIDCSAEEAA
Method: The cellular activity of the compounds according to the invention as Tie2 kinase inhibitors was determined in human endothelial cells (HUVEC) by measuring the inhibition of the autophosphorylation, elevated by treatment with sodium orthovanadate, of the endogenous Tie2 receptor by means of a Tie2/phosphotyrosine sandwich ELISA.
Human endothelial cells (human umbilical vein endothelial cells, HUVEC) were obtained from Cellsystems (FC-0003), cultured in Vasculife VEGF complete medium (Cellsystems, LL-1020) with 2% foetal calf serum (FCS) at 37° C./5% CO2 and used for Tie2-ELISA measurements up to passage 8.
HUVEC were plated in a culture volume of 100 μl of Vasculife VEGF complete medium at a cell density of 30 000 cells per well in transparent collagen-coated 96-well cell culture plates (Falcon, #353075) and incubated in an incubation cabinet at 37° C./5% CO2 overnight. The test substances dissolved in DMSO were used to prepare in each case one dilution series in Vasculife VEGF low-serum medium [basal medium with LifeFactors (Cellsystems, LM-0002), without FCS, with 0.1% BSA] without sodium orthovanadate and one dilution series in Vasculife VEGF low-serum-medium with 8 mM sodium orthovanadate in the desired concentrations in the range from 10 pM to 10 μM, the final DMSO concentration being 1%. After removal of the complete medium, 100 μl per well of the dilute substances in low-serum medium without sodium orthovanadate were pipetted onto the cells, and the plates were incubated in an incubation cabinet at 37° C./5% CO2 for 10 min. A further 100 μl of the same substance dilution in low-serum medium with 8 mM sodium orthovanadate were then pipetted into the respective well and the cells were incubated in a volume of now 200 μl in the presence of 4 mM sodium orthovanadate at the desired substance concentration in an incubation cabinet at 37° C./5% CO2 for a further 20 min. The cell supernatant of the plates was then removed and the cells were washed once with 250 μl per well of cold PBS which contained 4 mM sodium orthovanadate. 120 μl of Duschl lysis buffer [50 mM HEPES pH 7.2, 150 mM NaCl, 1 mM MgCl2, 10% glycerol, 1.5% Triton X-100, 4 mM sodium orthovanadate, 250 μl S-PIC phosphatase inhibitor cocktail 2 (Sigma, P5726) and 1 tablet of Complete proteinase inhibitor mixture (Roche, #1836145) per 10 ml] were then added to the cells in each well. The plates were shaken briefly and then incubated on ice for 20 min, and the lysates in the cell culture plates were then frozen at −80° C. for at least 30 min.
For measuring the autophosphorylation of the endogenous Tie2 receptor in the cell lysates prepared, a self-prepared anti-Tie2 antibody directed against the N-terminus of the Tie-2 receptor (1.09 mg/ml) and an HRP-coupled anti-phosphotyrosine antibody (Sigma, A4595, clone pY-20) were used. White 96-well ELISA plates (Lumitrac600, Greiner, #655074) were incubated with 100 μl per well of a 1:1000 dilution of the anti-Tie2 antibody in coating buffer [15 mM Na2CO3, 35 mM NaHCO3, pH 9.6] with shaking at 4° C. overnight. The coated ELISA plates were washed three times with 250 μl PBST buffer [0.1% Tween-20 in PBS], the wells were blocked with 250 μl 3% BSA in PBST buffer with shaking at RT for 1-6 h and washed three more times with 250 μl PBST buffer. From the cell lysate plates thawed in the fridge, in each case 100 μl of lysate were transferred into the coated wells of the ELISA plates, and the plates were incubated with shaking at 4° C. overnight. The plates were washed three times with in each case 250 μl of PBST buffer, and 100 μl of a 1:5000 dilution of the anti-phosphotyrosine HRP antibody in 3% Prionex (Calbiochem, #529600) in PBST were then pipetted into each well and the plates were incubated with shaking and protected from light at 4° C. overnight. […]

Row | Compound | IC50 [1] [pM] | IC50 (endogenous Tie2 receptor) [pM]
1 | Cc1cc(Cl)c(-n2ccn3nc(-c4cccnc4)cc23)cc1NC(=O)c1cccc(S(F)(F)(F)(F)F)c1 [Example 157, N-{4-Chloro-2-methyl-5-[6-(pyridin-3-yl)-1H-imidazo[1,2-b]pyrazol-1-yl]phenyl}-3-(pentafluoro-λ^6-sulphanyl)benzamide] | 500 | 1000
2 | Cc1cc(C)c(-n2ccn3nc(-c4cccnc4)cc23)cc1NC(=O)c1cc(C#N)nc(C(C)(C)C)c1 [Example 116, 2-tert-Butyl-6-cyano-N-{2,4-dimethyl-5-[6-(pyridin-3-yl)-1H-imidazo[1,2-b]pyrazol-1-yl]phenyl}-isonicotinamide] | 500 | 2900
3 | Cc1ccc(NC(=O)c2cc(S(C)(=O)=O)cc(S(F)(F)(F)(F)F)c2)cc1-n1ccn2nc(-c3cccnc3)cc12 [Example 26, N-{4-Methyl-3-[6-(pyridin-3-yl)-1H-imidazo[1,2-b]pyrazol-1-yl]phenyl}-3-(methylsulphonyl)-5-(pentafluoro-λ^6-sulphanyl)benzamide] | 800 | 3000
